For one data set, the target named is T1, human oxytocin receptors (Homo sapiens, UniProt P30559).
T1 sequence (P30559 1-389): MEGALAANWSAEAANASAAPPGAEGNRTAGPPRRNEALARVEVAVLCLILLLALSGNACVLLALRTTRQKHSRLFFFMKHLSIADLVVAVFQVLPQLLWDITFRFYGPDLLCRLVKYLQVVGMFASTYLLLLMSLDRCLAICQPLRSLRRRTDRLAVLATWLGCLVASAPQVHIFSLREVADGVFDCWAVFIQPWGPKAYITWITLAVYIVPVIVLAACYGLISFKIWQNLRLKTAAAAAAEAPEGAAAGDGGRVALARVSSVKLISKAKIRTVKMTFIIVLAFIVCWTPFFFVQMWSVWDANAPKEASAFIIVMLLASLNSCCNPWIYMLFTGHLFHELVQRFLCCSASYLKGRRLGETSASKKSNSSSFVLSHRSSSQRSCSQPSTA
Description: in vitro binding test, displacement of a radioiodated oxytocin analogue from oxytocin receptors. As to conditions: for IC50: membrane preparation of human oxytocin receptors; for IC50 OXT/IC50 V2: selectivity ratio versus V2. As for the experimental part:
(§1) The affinity of the compounds of the invention for the Via and V1b vasopressin receptors and the affinity of the compounds of the invention for the oxytocin (OXT) receptors were also tested.
The affinity of the compounds according to the invention for the OXT receptors was determined in an in vitro binding test using the method described by J. Elands et al. in Eur. J. Pharmacol. 1987, 147, 197-207. This method comprises in vitro investigation of the displacement of a radioiodated analogue of oxytocin from the oxytocin receptors in a membrane preparation of human oxytocin receptors.

A further data set deals with T2, V1b receptors (Homo sapiens, UniProt P47901).
T2 sequence (P47901 1-424): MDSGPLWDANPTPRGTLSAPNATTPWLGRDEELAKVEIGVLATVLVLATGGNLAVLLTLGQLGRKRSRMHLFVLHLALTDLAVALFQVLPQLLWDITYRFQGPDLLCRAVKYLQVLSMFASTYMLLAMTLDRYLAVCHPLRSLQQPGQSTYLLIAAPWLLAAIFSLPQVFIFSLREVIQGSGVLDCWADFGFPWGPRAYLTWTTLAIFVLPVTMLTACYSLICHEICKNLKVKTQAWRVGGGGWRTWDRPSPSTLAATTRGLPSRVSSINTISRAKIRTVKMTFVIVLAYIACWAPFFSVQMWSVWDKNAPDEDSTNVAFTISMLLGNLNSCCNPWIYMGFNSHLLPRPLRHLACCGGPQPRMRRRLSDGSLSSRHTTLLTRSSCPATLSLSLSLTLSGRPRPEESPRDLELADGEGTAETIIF
Description: affinity for V1b receptors (method of Sugimoto et al.). The class given is binding. As to conditions: for IC50 V1b/IC50 V2: selectivity ratio versus V2. The method, then: as §1
(§2) The affinity of the compounds according to the invention for human Via receptors was determined according to the method described by M. Thibonnier et al. in J. Biol. Chem. 1994, 269, 3304-3310. The affinity of the compounds according to the invention for the V1b receptors was determined according to the method described by T. Sugimoto et al. in J. Biol. Chem. 1994, 269, 27088-27092.

The next data set deals with V1a receptors (Homo sapiens, UniProt P37288). The data set can be described thus: affinity for V1a receptors (method of Thibonnier et al.). The class given is binding. As to conditions: for IC50 V1a/IC50 V2: selectivity ratio versus V2. As for the experimental part:
as §1, §2

Data set [1] has as its target T3, human recombinant V2 vasopressin receptors (Homo sapiens, UniProt P30518).
T3 construct: expressed in transfected cells; host or cells: CHO
The data set can be described thus: in vitro binding test, displacement of [H3]-AVP from V2 vasopressin receptors. As to conditions: CHO membranes, 3.5 nM [H3]-AVP, 45 minutes at 25° C. The method, then:
The affinity of the compounds of the invention for the V2 vasopressin receptors was measured in in vitro binding tests, as described in J. Pharmacol. Exp. Ther., (2002), 300: pp. 1122-1130.
Plasma membranes (about 20 μg/ml) obtained from CHO tissue or cell line expressing human recombinant V2 vasopressin receptors, are incubated for 45 minutes at 25° C. in 200 μL of TRIS-HCl buffer (50 mM; pH 8.2) containing 2 mM of MgCl2, 1 mM of EDTA, 0.1% of BSA, 1/500 protease inhibitor cocktail (Sigma #P2714) and 3.5 nM of [H3]-AVP. The reaction is stopped by filtration and washing on GF/B filters. Nonspecific binding is determined in the presence of 1 μM of AVP. The compounds of the invention, dissolved beforehand to a concentration of 10^−2 M in DMSO, are tested in a dilution series.
For each concentration the results are expressed as percentage inhibition of specific binding. An IC50 (concentration of product inhibiting 50% of specific binding) is determined for each of the products using the in-house software Biost@t-SPEED v1.3 which employs the 4-parameter logistic model of Ratkovsky and Reedy (1986). Adjustment is obtained by nonlinear regression using Marquardt's algorithm of the SAS v8.2 software running under UNIX.

Broadly, the melting point is the temperature of the solid-liquid transition. The term IC50 denotes the midpoint of a concentration-inhibition curve.

Structures are written as SMILES. Where a name gives a salt, the structure may show the parent alone.

V1a receptors, sequence (P37288 whole entry): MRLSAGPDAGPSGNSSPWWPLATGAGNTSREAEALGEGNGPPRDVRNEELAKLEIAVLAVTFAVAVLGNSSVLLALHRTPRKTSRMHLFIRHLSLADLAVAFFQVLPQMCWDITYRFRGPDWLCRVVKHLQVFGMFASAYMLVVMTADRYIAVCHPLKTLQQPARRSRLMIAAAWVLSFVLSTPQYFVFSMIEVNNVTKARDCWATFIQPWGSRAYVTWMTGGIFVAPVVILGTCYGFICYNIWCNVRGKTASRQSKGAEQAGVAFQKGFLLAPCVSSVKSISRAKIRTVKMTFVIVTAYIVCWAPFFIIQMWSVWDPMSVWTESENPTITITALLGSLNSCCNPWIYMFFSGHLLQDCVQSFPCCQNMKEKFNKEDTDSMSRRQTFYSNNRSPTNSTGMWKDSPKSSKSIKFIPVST
T3 sequence (P30518 whole entry): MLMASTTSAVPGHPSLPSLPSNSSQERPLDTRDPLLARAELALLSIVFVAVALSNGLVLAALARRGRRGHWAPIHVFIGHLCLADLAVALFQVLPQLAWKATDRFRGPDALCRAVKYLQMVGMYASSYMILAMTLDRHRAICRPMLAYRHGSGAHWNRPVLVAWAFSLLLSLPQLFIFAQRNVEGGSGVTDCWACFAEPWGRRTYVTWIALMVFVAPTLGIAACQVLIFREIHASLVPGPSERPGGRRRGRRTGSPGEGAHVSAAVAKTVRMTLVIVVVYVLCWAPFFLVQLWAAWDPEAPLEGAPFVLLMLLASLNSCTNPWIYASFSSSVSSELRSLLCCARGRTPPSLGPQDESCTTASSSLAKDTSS

Compound `CCOc1ccc2c(c1)C(C)(c1cc(C(=O)N3CC4CCN(C)C4C3)ccc1Cl)C(=O)N2S(=O)(=O)c1ccc(C(=O)NC(C)(C)C)cc1OC` (centres unmarked) [Example 46, N-tert-Butyl-4-{3-[2-chloro-5-(1-methyl-hexahydro-pyrrolo[3,4-b]pyrrole-5-carbonyl)-phenyl]-5-ethoxy-3-methyl-2-oxo-2,3-dihydro-indole-1-sulphonyl}-3-methoxy-benzamide] gave a melting point of 130 °C.
`CCOc1ccc2c(c1)C(C)(c1cc(NC(=O)C3CCN(C)CC3)ccc1Cl)C(=O)N2S(=O)(=O)c1ccc(C(=O)NC(C)(C)C)cc1OC` (centres unmarked) [Example 62, 1-methylpiperidine-4-carboxylic acid {3-[1-(4-tert-butylcarbamoyl-2-methoxy-benzenesulphonyl)-5-ethoxy-3-methyl-2-oxo-2,3-dihydro-1H-indol-3-yl]-4-chlorophenyl}-amide]: the melting point was determined as 180 °C. In addition, on human oxytocin receptors, the IC50 was over 1 µM and the “IC50 OXT/IC50 V2” value is on record as over 100. For the same compound, on V1b receptors, the IC50 was over 1 µM and the “IC50 V1b/IC50 V2” value is over 100. Further, on V1a receptors, the IC50 worked out at 0.63 µM and the “IC50 V1a/IC50 V2” value is listed as over 100. In addition, the half-maximal inhibitory concentration (IC50) in data set [1] came to 0.0025 µM.
In turn, `CCOc1ccc2c(c1)C(C)(c1ccccc1Cl)C(=O)N2S(=O)(=O)c1ccc(C(=O)NC(C)(C)CO)cc1` (centres unmarked) [Example 72, 4-[3-(2-chlorophenyl)-5-ethoxy-3-methyl-2-oxo-2,3-dihydroindole-1-sulphonyl]-N-(2-hydroxy-1,1-dimethylethyl)benzamide] had a melting point of 152 °C. Also, on human oxytocin receptors, the IC50 is 0.39 µM and the “IC50 OXT/IC50 V2” value is recorded as over 100. At V1b receptors, half-maximal inhibition (IC50) was put at 0.94 µM and the “IC50 V1b/IC50 V2” value is listed as over 100. Besides, at V1a receptors, the IC50 is over 1 µM and the “IC50 V1a/IC50 V2” value is reported as over 100. In addition, the IC50 in data set [1] stood at 0.0013 µM.
As to `CCOc1ccc2c(c1)C(C)(c1cc(C(=O)NCCN)ccc1Cl)C(=O)N2S(=O)(=O)c1ccc(C(=O)NC(C)(C)C)cc1OC` (centres unmarked) (as salt: hydrochloride) [Example 47, N-tert-Butyl-4-{3-[2-chloro-5-(2-aminoethylamino-carbonyl)-phenyl]-5-ethoxy-3-methyl-2-oxo-2,3-dihydro-indole-1-sulphonyl}-3-methoxy-benzamide], the melting point is 204 °C.
On to `COc1cc(C(=O)NC(C)(C)C)ccc1S(=O)(=O)N1C(=O)C(C)(c2ccccc2Cl)c2cc(O)ccc21` (centres unmarked) [Example 144], for which the melting point stood at 166 °C. In addition, at human oxytocin receptors, the IC50 is 0.13 µM and the “IC50 OXT/IC50 V2” value came to 50. Also, on V1b receptors, the IC50 is over 1 µM and the “IC50 V1b/IC50 V2” value was over 100. Moreover, at V1a receptors, the IC50 came out at 0.31 µM and the “IC50 V1a/IC50 V2” value is recorded as over 100. In data set [1], the half-maximal inhibitory concentration (IC50) was determined as 0.0026 µM.
Compound `CCOc1ccc2c(c1)C(C)(c1cc(C(=O)N[C@@H]3CCNC3)ccc1Cl)C(=O)N2S(=O)(=O)c1ccc(C(=O)NC(C)(C)C)cc1OC` (single isomer, unassigned) [Example 43] came in with a melting point of 216 °C. At human oxytocin receptors, the IC50 stood at 0.7 µM and the “IC50 OXT/IC50 V2” value is given as over 100. For the same compound, at V1b receptors, the IC50 was over 1 µM and the “IC50 V1b/IC50 V2” value is over 100. On V1a receptors, the IC50 was determined as 0.73 µM and the “IC50 V1a/IC50 V2” value is listed as over 100. Also, the IC50 in data set [1] is 0.0013 µM.
Compound `CCOc1ccc2c(c1)C(C)(c1ccccc1F)C(=O)N2S(=O)(=O)c1ccc(C(=O)NC(C)(C)C)cc1` (centres unmarked) [Example 101, N-tert-butyl-4-[3-methyl-3-(2-fluorophenyl)-5-ethoxy-2-oxo-2,3-dihydroindole-1-sulphonyl]benzamide] gave a melting point of 116 °C.
As for `CCOc1ccc2c(c1)C(C)(c1c(F)cccc1Cl)C(=O)N2S(=O)(=O)c1ccc(C(=O)NC(C)(C)C)cc1` (centres unmarked) [Example 125, N-tert-butyl-4-[3-methyl-3-(2-chloro-6-fluorophenyl)-5-ethoxy-2-oxo-2,3-dihydro-indole-1-sulphonyl]benzamide], the melting point is 128 °C.
On the same count and under the same terms, to `CCOc1ccc2c(c1)C(C)(c1ccccc1Cl)C(=O)N2S(=O)(=O)c1ccc(C(=O)NC(C)(C)CC)cc1` (centres unmarked) [Example 4, 4-[3-(2-Chloro-phenyl)-5-ethoxy-3-methyl-2-oxo-2,3-dihydro-indole-1-sulphonyl]-N-(1,1-dimethyl-propyl)-benzamide] belongs 138 °C; to `CCOc1ccc2c(c1)C(C)(c1cc(C(=O)O)ccc1Cl)C(=O)N2S(=O)(=O)c1ccc(C(=O)NC(C)(C)C)cc1OC` (centres unmarked) [Example 19, 3-[1-(4-tert-Butylcarbamoyl-2-methoxy-benzenesulphonyl)-5-ethoxy-3-methyl-2-oxo-2,3-dihydro-1H-indol-3-yl]-4-chloro-benzoic acid], 200 °C; to `CC(C)(C)NC(=O)c1ccc(S(=O)(=O)N2C(=O)C(C)(c3ccccc3Cl)c3cc(OCC(F)(F)F)ccc32)cc1` (centres unmarked) [Example 143, N-tert-Butyl-4-[3-(2-chlorophenyl)-3-methyl-2-oxo-5-(2,2,2-trifluoroethoxy)-2,3-di-hydroindole-1-sulphonyl]benzamide], 134 °C.
Still for that read-out and setting: to `CCOc1ccc2c(c1)C(C)(c1cc(N)ccc1Cl)C(=O)N2S(=O)(=O)c1ccc(C(=O)NC(C)(C)C)cc1OC` (centres unmarked) [Example 55, 4-[3-(5-Amino-2-chloro-phenyl)-5-ethoxy-3-methyl-2-oxo-2,3-dihydro-indole-1-sulphonyl]-N-tert-butyl-3-methoxy-benzamide] belongs 166 °C; to `CCOc1ccc2c(c1)C(C)(c1ccccc1)C(=O)N2S(=O)(=O)c1ccc(C(=O)NC(C)(C)C)cc1` (centres unmarked) [Example 98, N-tert-butyl-4-[3-methyl-3-phenyl-5-ethoxy-2-oxo-2,3-dihydroindole-1-sulphonyl]-benzamide], 89 °C; to `CCOc1ccc2c(c1)C(C)(c1cccc(OCCCN(C)C)c1)C(=O)N2S(=O)(=O)c1ccc(C(=O)NC(C)(C)C)cc1` (centres unmarked) [Example 145, N-tert-Butyl-4-{3-[3-(3-dimethylaminopropoxy)phenyl]-5-ethoxy-3-methyl-2-oxo-2,3-dihydroindole-1-sulphonyl}benzamide], 86 °C.
The same measure, in the same setting: to `CCOc1ccc2c(c1)C(C)(c1cc(C(=O)O)ccc1Cl)C(=O)N2S(=O)(=O)c1ccc(C(=O)NC(C)(C)C)cc1` (centres unmarked) [Example 48, 3-[1-(4-tert-Butylcarbamoyl-benzenesulphonyl)-5-ethoxy-3-methyl-2-oxo-2,3-dihydro-1H-indol-3-yl]-4-chloro-benzoic acid] belongs 188 °C; to `CCOc1ccc2c(c1)C(C)(c1cccc(OC)c1)C(=O)N2S(=O)(=O)c1ccc(C(=O)NC(C)(C)C)cc1` (centres unmarked) [Example 103, N-tert-butyl-4-[3-(3-methoxyphenyl)-5-ethoxy-3-methyl-2-oxo-2,3-dihydroindole-1-sulphonyl]benzamide], 101 °C.

(Values after US20100069384A1, “5-ALKYLOXY-INDOLIN-2-ONE DERIVATIVES, PREPARATION THEREOF AND APPLICATION THEREOF IN THERAPY” (SANOFI-AVENTIS, priority 2006, published 2010).)
